Values of other authors, collected in US6667408B2, “Process for preparing cyclic polyethers” (Japan Science and Technology Corporation, priority 2000, dated 2003).

Tested on: mice
Details: i.p.

Compound: C=CC/C=C\C=C/[C@H]1O[C@H]2C[C@H]3O[C@H]4CC[C@H]5O[C@H]6C[C@@]7(C)O[C@@]8(C)[C@@H](O)C[C@H](CCCO)O[C@@H]8C[C@@H]7O[C@@H]6C[C@@H]5O[C@]4(C)C[C@]3(C)O[C@@H]2C=C[C@]1(C)O [gambierol]
- LD50: 0.05 mg/kg
